Results: patent EP2975030B1, “DIHYDROPYRIDAZINE-3,5-DIONE DERIVATIVE” (Chugai Seiyaku Kabushiki Kaisha, priority 2013, dated 2014)

System: rat small-intestinal brush border membrane vesicles
Test: Inhibitory effect on 33PO4 uptake into rat small-intestinal brush border membrane vesicles (rapid filtration method)
Assay type: biochemical, Wistar female rat
Conditions: 1 µM test compound; 33PO4 uptake into rat small-intestinal BBMVs, 60 seconds
Description: The ^33PO4 transport activity of the small-intestinal BBMVs was determined by the rapid filtration method. […] Then, ice-cold buffer C (110 mM NaCl, 1 mM KH2PO4, and 10 mM HEPES (pH 7.5)) was added to each reaction mixture, which was immediately suction-filtered through a Millipore filter. The filter was washed with buffer C, and each sample was then dissolved in a liquid scintillator. The amount of ^33PO4 uptake into BBMVs was measured using a liquid scintillation counter. […]

Molecule	Rate of uptake inhibition (%) (1 µM)
COc1cccc(-c2cc(C(F)(F)F)ccc2NC(=O)C2=C(O)[C@@]3(C)CCCN3N(Cc3ccc(C#CCOCCOCCO)c(F)c3F)C2=O)c1OC [Example 139]	88
C[C@]12CCCN1N(Cc1cccc(F)c1F)C(=O)C(C(=O)Nc1ccc(Cl)cc1F)=C2O [Example 76]	77
CCC1(CC)C(O)=C(C(=O)Nc2ccc(Cl)cc2-c2cc(C(F)(F)F)ncn2)C(=O)N(Cc2ccc(OCCN3CCOCC3)c(F)c2F)N1C [Example 292]	44
COC(=O)COc1ccc(CN2C(=O)C(C(=O)Nc3ccc(C(F)(F)F)cc3-c3ccc(C(F)(F)F)nc3)=C(O)[C@@]3(C)CCCN23)c(F)c1F [Example 150, Methyl 2-[4-[[(4aR)-4-Hydroxy-4a-methyl-2-oxo-3-[[4-(trifluoromethyl)-2-[6-(trifluoromethyl)pyridin-3-yl]phenyl]carbamoyl]-6,7-dihydro-5H-pyrrolo[1,2-b]pyridazin-1-yl]methyl]-2,3-difluorophenoxy] acetate]	87
CN(CCOc1ccc(CN2C(=O)C(C(=O)Nc3ccc(C(F)(F)F)cc3-c3cc(C(F)(F)F)ncn3)=C(O)C3(CCC3)N2C)c(F)c1F)C1COC1 [Example 402, 6-(2,3-Difluoro-4-(2-(methyl(oxetan-3-yl)amino)ethoxy)benzyl)-9-hydroxy-5-methyl-7-oxo-N-(4-(trifluorometyl)-2-(6-(trifluoromtthyl)pyrimidin-4-yl)phenyl)-5,6-diazaspiro[3.5]non-8-ene-8-carboxamide]	54
C[C@]12CCCN1N(Cc1c(F)cc(C#CCCOC[C@H](O)CO)cc1F)C(=O)C(C(=O)Nc1ccc(C(F)(F)F)cc1-c1ccc(C(F)(F)F)nc1)=C2O [Example 145]	78
CSc1cc(-c2cc(C(F)(F)F)ccc2NC(=O)C2=C(O)[C@@]3(C)CCCN3N(Cc3cccc(F)c3F)C2=O)cnc1C#N [Example 113]	84
CN1CCC(Oc2ccc(CN3C(=O)C(C(=O)Nc4ccc(C(F)(F)F)cc4-c4cc(C(F)(F)F)ncn4)=C(O)C4(CCC4)N3C)c(F)c2F)CC1 [Example 411]	32
CCC1(CC)C(O)=C(C(=O)Nc2ccc(C(F)(F)F)cc2-c2cc(C(F)(F)F)ncn2)C(=O)N(Cc2ccc(OCCN3CCOCC3)c(F)c2F)N1C [Example 291]	47
CCC1(CC)C(O)=C(C(=O)Nc2ccc(C(F)(F)F)cc2-c2ccc(C(F)(F)F)nc2)C(=O)N(Cc2ccc(OCCN3CCOCC3)c(F)c2F)N1C [Example 293]	47
C[C@]12CCCN1N(Cc1cccc(F)c1F)C(=O)C(C(=O)Nc1ccc(C(F)(F)F)cc1-c1cnc(Cl)cn1)=C2O [Example 74]	82
CC1(C)CC[C@]2(C)C(O)=C(C(=O)Nc3cc(C(F)(F)F)ccc3-c3ccc(C(F)(F)F)nc3)C(=O)N(Cc3cccc(F)c3F)N12 [Example 63]	72
CCOc1cccc(-c2cc(C(F)(F)F)ccc2NC(=O)C2=C(O)[C@@]3(C)CCCN3N(Cc3cccc(F)c3F)C2=O)c1OC [Example 66]	96
COCCN(C)CCOCCOCCOCCOCCOc1ccc(CN2C(=O)C(C(=O)Nc3ccc(C(F)(F)F)cc3-c3cc(C(F)(F)F)ncn3)=C(O)C3(CCCC3)N2C)c(F)c1F [Example 432]	11
Cc1c(-c2cc(C(F)(F)F)ccc2NC(=O)C2=C(O)C3(CCCCC3)N(C)N(Cc3ccc(OCCN4CCOCC4)c(F)c3F)C2=O)ncnc1C(F)(F)F [Example 296]	17
C[C@]12CCCN1N(Cc1c(F)cccc1Cl)C(=O)C(C(=O)Nc1ccc(C(F)(F)F)cc1-c1cc(C(F)(F)F)ncn1)=C2O [Example 210]	71
CN1[C@@H](C(C)(C)C)C(O)=C(C(=O)Nc2ccc(Cl)cc2-c2cc(C#N)ncn2)C(=O)N1Cc1ccc(OCCN2CCOCC2)c(F)c1F [Example 272]	43
(4aR)-1-[(2,3-Difluorophenyl)methyl]-4-hydroxy-N-[5-methyl-2-(trifluoromethyl)furan-3-yl]-2-oxo-4a-propyl-6,7-dihydro-5H-pyrrolo[1,2-b]pyridazine-3-carboxamide [Example 12]	27

Molecule	Rate of uptake inhibition (%) (1 µM)
Cc1cc(NC(=O)C2=C(O)[C@@H]3CCC(C)(C)N3N(Cc3cccc(F)c3)C2=O)c(C(F)(F)F)o1 [Example 4, (4aS)-1-[(3-Fluorophenyl)methyl]-4-hydroxy-7,7-dimethyl-N-[5-methyl-2-(trifluoromethyl)furan-3-yl]-2-oxo-5,6-dihydro-4aH-pyrrolo[1,2-b]pyridazine-3-carboxamide]	32
CN1N(Cc2cccc(F)c2F)C(=O)C(C(=O)Nc2ccc(C(F)(F)F)cc2-c2cc(C(F)(F)F)ncn2)=C(O)C12CCC2 [Example 300]	74
CCOC(=O)CCCCCCN1C(=O)C(C(=O)Nc2ccc(C(F)(F)F)cc2-c2ccc(C(F)(F)F)nc2)=C(O)[C@@]2(C)CCCN12 [Example 235, Ethyl 7-[(4aR)-4-hydroxy-4a-methyl-2-oxo-3-[[4-(trifluoromethyl)-2-[6-(trifluoromethyl)pyridin-3-yl]phenyl]carbamoyl]-6,7-dihydro-5H-pyrrolo[1,2-b]pyridazin-1-yl]heptanoate]	65
C[C@]12CCCN1N(Cc1ccccc1C#N)C(=O)C(C(=O)Nc1ccc(C(F)(F)F)cc1-c1cc(C(F)(F)F)ncn1)=C2O [Example 178]	81
CC(C)(C)[C@H]1C(O)=C(C(=O)Nc2cc(F)c(Br)c(F)c2)C(=O)N(Cc2cccc(F)c2F)N1CC(F)(F)F [Example 248]	45
COCCN1CCC[C@H]1COc1ccc(CN2C(=O)C(C(=O)Nc3ccc(C(F)(F)F)cc3-c3cc(C(F)(F)F)ncn3)=C(O)C3(CCC3)N2C)c(F)c1F [Example 404, 6-[[2,3-Difluoro-4-[[(2S)-1-(2-methoxyethyl)pirrolidin-2-yl]methoxy]phenyl]methyl]-9-hydroxy-5-methyl-7-oxo-N-[4-(trifluoromethyl)-2-[6-(trifluoromethyl)pyrimidin-4-yl]phenyl]-5,6-diazaspiro[3.5]non-8-ene-8-carboxamide]	43
C[C@]12CCCN1N(Cc1cccc(F)c1F)C(=O)C(C(=O)Nc1ccc(Cl)cn1)=C2O [Example 79]	71
CN1N(Cc2ccc(OCCN3CCN(CCOCCO)CC3)c(F)c2F)C(=O)C(C(=O)Nc2ccc(C(F)(F)F)cc2-c2cc(C(F)(F)F)ncn2)=C(O)C12CCC2 [Example 361]	20
CN1N(Cc2cccc(F)c2F)C(=O)C(C(=O)Nc2ccc(C(F)(F)F)cc2-c2cc(C(F)(F)F)ncn2)=C(O)C12CCCC2 [Example 260]	70
CN(C)C(=O)N1CCN(CCOc2ccc(CN3C(=O)C(C(=O)Nc4ccc(C(F)(F)F)cc4-c4cc(C(F)(F)F)ncn4)=C(O)C4(CCC4)N3C)c(F)c2F)CC1 [Example 364]	36
COCC(C)(C)N(C)CCOc1ccc(CN2C(=O)C(C(=O)Nc3ccc(C(F)(F)F)cc3-c3cc(C(F)(F)F)ncn3)=C(O)C3(CCCC3)N2C)c(F)c1F [Example 372]	38
CSc1ccc(-c2cc(C(F)(F)F)ccc2NC(=O)C2=C(O)[C@@]3(C)CCCN3N(Cc3ccc(CCCCCCC(=O)O)c(F)c3F)C2=O)cn1 [Example 115, 7-[4-[[(4aR)-4-Hydroxy-4a-methyl-3-[[2-(6-methylsulfanylpyridin-3-yl)-4-(trifluoromethyl)phenyl]carbamoyl]-2-oxo-6,7-dihydro-5H-pyrrolo[1,2-b]pyridazin-1-yl]methyl]-2,3-difluorophenyl]heptanoate]	85
CCCN(CCN(C)CCOC)c1ccc(CN2C(=O)C(C(=O)Nc3ccc(C(F)(F)F)cc3-c3cc(C(F)(F)F)ncn3)=C(O)C3(CCCC3)N2C)c(F)c1F [Example 444]	24
CN1[C@@H](C(C)(C)C)C(O)=C(C(=O)Nc2ccc(C(F)(F)F)cc2-c2ccnc(C#N)c2)C(=O)N1Cc1ccc(OCCN2CCOCC2)c(F)c1F [Example 271]	60
C[C@]12CCCN1N(Cc1ccc(CCCCCCC(=O)O)c(F)c1F)C(=O)C(C(=O)Nc1ccc(Cl)cc1-c1ccc(C(F)(F)F)nc1)=C2O [Example 116, 7-[4-[[(4aR)-3-[[4-Chloro-2-[6-(trifluoromethyl)pyridin-3-yl]phenyl]carbamoyl]-4-hydroxy-4a-methyl-2-oxo-6,7-dihydro-5H-pyrrolo[1,2-b]pyridazin-1-yl]methyl]-2,3-difluorophenyl]heptanoate]	72
C[C@]12CCCN1N(Cc1c(F)cc(OCCCCCOC[C@@H](O)CO)cc1F)C(=O)C(C(=O)Nc1ccc(C(F)(F)F)cc1-c1ccc(C(F)(F)F)nc1)=C2O [Example 153]	73
CN1N(Cc2ccc(OCCCOCCO)c(F)c2F)C(=O)C(C(=O)Nc2ccc(C(F)(F)F)cc2-c2cc(C(F)(F)F)ncn2)=C(O)C12CCCC2 [Example 395]	39
